Like-named read-outs stand apart in the source and are kept apart here.

Common to all, as to type: cell-based, Schistosoma mansoni
For one assay, the system named is S. mansoni schistosomula. Description: Screening of S. mansoni schistosomula (Roboworm, motility and phenotype). The following applies: for Selectivity index, schistosomula motility: HepG2 CC50 / schistosomula motility EC50; for Selectivity index, schistosomula phenotype: HepG2 CC50 / schistosomula phenotype EC50; for EC50: Schistosoma mansoni, average across motility and phenotype, read-out: average EC50 for phenotype and motility, schistosomula; for concentrations at which schistosomula phenotype was affected / concentrations at which schistosomula motility was affected: titration 10 to 0.625 μM; for concentrations at which schistosomula phenotype was affected: hit below -0.15; for concentrations at which schistosomula motility was affected: hit below -0.35. On the procedure:
Biomphalaria glabrata (NMRI and the previously described pigmented strains) snails infected with S. mansoni (Puerto Rican strain) were shed for 2 hrs under light at 26 °C. Cercariae were collected, mechanically transformed into schistosomula and subsequently prepared for high throughput screening (HTS) on the Roboworm platform as previously described. Schistosomula were cultured in Basch Media (composed of BME media, 10% M169 media, 0.5x MEM vitamins, 10% Schneider’s insect media, 15.6mM Hepes, 5% heat inactivated FBS, 2x Antibiotic/anti-mycotic (Sigma-Aldrich, UK) solution (final concentrations shown)).
EC50 values were calculated from the titrated concentrations by non-linear regression, after log transformation of concentrations and data normalization using GraphPad Prism 7.02.
Fig 2 Anti-schistosomula activity of the eight analogues compared to parent compound 1. […] Test plates were incubated at 37°C for 72 hrs in an atmosphere containing 5% CO2. At 72hrs, schistosomula were scored using the Roboworm platform for both motility (A) and phenotype (B). Any compound that induced a score of below -0.35 for motility (A) and -0.15 for phenotype (B) were considered a hit. Black squares indicate the most positive effect on motility or phenotype; grey scale from dark grey to lighter shades of grey indicates a progressive reduced compound efficacy; white squares indicate no effect on either phenotype or motility. Z´ values for this screen was 0.41741 for motility and 0.57275 for phenotype. (C) Phenotypes of schistosomula when treated with 10μM of each of the test compounds and controls.
Supplementary file pntd.0008630.s003.tif: S1 Fig Initial schistosomula screens of the 14 compounds and their intermediate analogues. […] Test plates were incubated at 37°C for 72 hrs in an atmosphere containing 5% CO2. At 72hrs, schistosomula were scored using the Roboworm platform for both motility and phenotype as previously described. A) Of the 14 compounds evaluated, two fell within the hit region. Z’ scores for motility and phenotype were 0.40079 and 0.56846 respectively. […] Z´ scores for motility and phenotype were 0.37864 and 0.47882 respectively. *Average EC50 value across motility and phenotype is presented for each compound. (TIF) Click here for additional data file.

In assay [1] the test system is adult S. mansoni worm pairs. Description: Screening of adult S. mansoni blood flukes (7-week worms), WHO-TDR motility scoring. Conditions: for Selectivity index, adult worm female: HepG2 CC50 / adult female EC50; for Selectivity index, adult worm male: HepG2 CC50 / adult male EC50; for EC50: Schistosoma mansoni. The protocol: Adult S. mansoni parasites were recovered by hepatic portal vein perfusion from TO outbred mice (HsdOla:TO, Tuck-Ordinary, Envigo, UK) that were percutaneously infected seven weeks earlier with 180 cercariae. Three adult worm pairs per well, in duplicate, were transferred into 48 well plates (Fisher Scientific, Loughborough, UK) and cultured at 37 °C in an atmosphere containing 5% CO2 in DMEM (Gibco, Paisley, UK) containing 10% v/v HEPES, 10% v/v Foetal Bovine Serum (FBS), 0.7% v/v 200 mM L-Glutamine and 1X v/v penicillin-streptomycin. Worms were dosed with test compounds at 20 μM, 10 μM, 5 μM, 2.5 μM, 1.25 μM and 0.625 μM (in 0.2% DMSO) for 72 hr. Adult worms were scored manually at 72 hr using the WHO-TDR metric scoring system as described previously. Dose response curves and EC50 values were obtained by non-linear regression, after log transformation of concentrations and data normalization using GraphPad Prism 7.02. At 72 hr, the medium from each well was also collected, centrifuged at 350 x g for 2 min. Afterwards, the supernatant was removed, and the remaining egg pellet re-suspended in 10% v/v formalin. Eggs that were oval and contained a fully formed lateral spine were subsequently counted.
Fig 3 Adult schistosome motility and egg production are differentially affected by the nine N-acyl homoserine lactones. […] Parasite motility was evaluated for each sex and scored using the WHO-TDR scoring system (0 = Dead parasite, 4 = Normal/Healthy movement). B) Culture media were collected from some adult co-cultures at 72 hrs and eggs present in the media were counted. p values are indicated as follows: * <0.05, ** <0.01, *** <0.001.
Initially, these screens were conducted at 20 μM; any compounds that scored a 1 or 0 for motility at this primary concentration were further titrated until no further effect was observed. […] Similar to the schistosomula assays, the differences observed in adult parasite motility when treated with the (R)- and (S)- enantiomers of Compound 1 were striking. […] Estimated EC50s for male and female parasites for these two enantiomers were determined (Table 2), with Compound 5 ((R)- enantiomer) having greater activity than Compound 6 ((S)- enantiomer).

Assay [2] deals with juvenile S. mansoni worms. The assay can be described thus: Propidium iodide (PI) staining of juvenile S. mansoni worms. Conditions: 72 hrs. The protocol:
Juvenile S. mansoni parasites were recovered via hepatic portal vein perfusion from TO outbred mice (HsdOla:TO, Tuck-Ordinary, Envigo, UK) that were infected percutaneously three weeks earlier with 4000 cercariae. Preparation and centrifugation of juvenile worms have been described previously. […] After motility quantification, 2 μg/mL of PI was added to each well and the plate returned to 37°C, 5% CO2 for 15 minutes. Each well was subsequently imaged on the Roboworm platform using brightfield and fluorescent microscopy (excitation wavelength = 580 nm; emission wavelength = 604 nm). The number of PI positive vs PI negative juvenile worms were cross-checked with the motility scores obtained by our scoring matrix, and the data reported as percentage of PI positive across all parasites within the well. EC50 values were calculated from the motility scores obtained from the dose response titration (as detailed above) and dose response curves were obtained by non-linear regression, after log transformation of concentrations and data normalization using GraphPad Prism 7.02.
Three week juvenile schistosomes, incubated with compounds (1), (3) or controls for 72 hrs, were subsequently cultured with PI at a final concentration of 2 μg/mL for 15 minutes at 37 °C in an environment containing 5% CO2. PI positive parasites (dead) were counted and the percent live vs dead in each well is indicated. A) Quantification of compound (1) mediated juvenile death. B) Quantification of compound (3) mediated juvenile death.

Where [3] appears, read: 7-week worms, 72 hr, motility, 95% confidence interval, read-out: ADULT WORM EC50 Female.
[4] abbreviates: 7-week worms, 72 hr, motility, 95% confidence interval, read-out: ADULT WORM EC50 Male.

On to `O=C(CBr)NC1CCOC1=O` (centres unmarked) [Compound 1, 2-bromo-N-(2-oxotetrahydrofuran-3-yl)acetamide], for which the “effect on schistosomula motility and phenotype metrics in initial screen” value in the assay with S. mansoni schistosomula (10 μM, 72 hrs) was “negatively affected both schistosomula motility and phenotype metrics”. In addition, the “Selectivity index, schistosomula motility” value with S. mansoni schistosomula was 11.5. In the assay on S. mansoni schistosomula, the “Selectivity index, schistosomula phenotype” value is given as 7.9. Moreover, the EC50 (as a rule, the concentration giving half of the maximal effect) with S. mansoni schistosomula (72 hrs) was 4.7 µM; in assay [1] (setting [3]) it was 8.3 µM; in assay [1] (setting [4]), 8.2 µM. The “concentrations at which schistosomula phenotype was affected” value with S. mansoni schistosomula (72 hrs) is on record as “from 10 to 1.25”. For the same compound, the “concentrations at which schistosomula motility was affected” value in the assay on S. mansoni schistosomula (72 hrs) is on record as “all concentrations tested”. Also, in the assay on S. mansoni schistosomula (titration of initial hits, S1B Fig), the “good compound effect on schistosomula observed down to a concentration” value stood at 1.25 µM. In addition, the “Selectivity index, adult worm female” value in assay [1] is 5.2. For the same compound, the “Selectivity index, adult worm male” value in assay [1] is listed as 5.3. The “Percent P.I positive parasites” value in assay [2] (3.75 μM) came to 13.3%; in assay [2] (7.5 μM) it was 100%; in assay [2] (15 μM), 100%.

In the case of `O=C(CBr)NC1CCSC1=O` (centres unmarked) [Compound 3, 2-bromo-N-(2-oxotetrahydrothiophen-3-yl)acetamide], in the assay on S. mansoni schistosomula, the “Selectivity index, schistosomula motility” value came to 9.8 and the “Selectivity index, schistosomula phenotype” value amounted to 8.1. Besides, in the assay on S. mansoni schistosomula (72 hrs), the EC50 was 2.1 µM, the “concentrations at which schistosomula phenotype was affected” value is “all concentrations tested” and the “concentrations at which schistosomula motility was affected” value is “all concentrations tested”. Moreover, in assay [1] (72 hr), the “significant reduction in adult worm motility observed down to” value was 5 µM. Further, in assay [1], the “Selectivity index, adult worm female” value worked out at 4.8 and the “Selectivity index, adult worm male” value came out at 4.5. Besides, the EC50 in assay [1] (setting [3]) worked out at 3.9 µM. Further, the EC50 in assay [1] (setting [4]) stood at 4.2 µM. In addition, in assay [1] (sex not stated (abstract), read-out: adult worms EC50), the EC50 came to 4.8 µM. The “100% of the parasites PI positive down to concentration” value in assay [2] turned out to be 0.94 µM.

These data come from article PMC7595621, “Quorum sensing N-Acyl homoserine lactones are a new class of anti-schistosomal” (PLoS Neglected Tropical Diseases, 2020).
